According to BindingDB's records for doi:10.1021/jm00058a012 (University of Arizona, 1993):
Bridge positions count the residues as written; N and C are the ends. Square brackets hold non-standard residues; d marks the D form. Peptide text beside a SMILES is read from it. Pen = CC(C)(S)[C@H](N)C(=O)O

How the values were obtained:
[1] = Inhibition of [3H]DPDPE binding to delta opioid receptor of guinea pig brain homogenate
[2] = as above; remark: listed apart in the source

Compound	IC50 [1] [nM]	IC50 [2] [nM]
CC[C@H](C)[C@@H]1NC(=O)[C@H](CCCN=C(N)N)NC(=O)[C@H](CCCN=C(N)N)NC(=O)[C@@H](NC(=O)[C@H](Cc2ccccc2)NC(=O)CNC(=O)CNC(=O)[C@@H](N)Cc2ccc(O)cc2)CSSC[C@@H](C(=O)N2CCC[C@H]2C(=O)N[C@@H](CCCCN)C(N)=O)NC1=O [Tyr-Gly-Gly-Phe-c(Cys-Arg-Arg-Ile-Cys)-Pro-lys] (H-YGGFCRRICPK-NH2; disulfide 5-9)	31	
CC[C@H](C)[C@@H]1NC(=O)[C@H](CCCNC(=N)N)NC(=O)[C@H](CCCNC(=N)N)NC(=O)[C@@H](NC(=O)[C@H](Cc2ccccc2)NC(=O)CNC(=O)CNC(=O)[C@@H](N)Cc2ccccc2)CSSC[C@@H](C(N)=O)NC(=O)[C@@H]2CCCN2C(=O)[C@H](CCCNC(=N)N)NC1=O [Phe-Gly-Gly-Phe-c(Cys-Arg-Arg-Ile-Arg-Pro-Cys)] (H-FGGFCRRIRPC-NH2; disulfide 5-11)	389	
CC[C@H](C)[C@@H]1NC(=O)[C@H](CCCN=C(N)N)NC(=O)[C@H](CCCN=C(N)N)NC(=O)[C@@H](NC(=O)[C@H](Cc2ccccc2)NC(=O)CNC(=O)CNC(=O)[C@@H](N)Cc2ccc(O)cc2)CSSC[C@@H](C(=O)N[C@@H](CCCCN)C(N)=O)NC(=O)[C@H](CCCN=C(N)N)NC1=O [Tyr-Gly-Gly-Phe-c(Cys-Arg-Arg-Ile-Arg-Cys)-lys] (H-YGGFCRRIRCK-NH2; disulfide 5-10)	83	
CC(C)C[C@H](NC(=O)[C@H](Cc1ccccc1)NC(=O)CNC(=O)CNC(=O)[C@@H](N)Cc1ccc(O)cc1)C(=O)N[C@@H](CCCN=C(N)N)C(=O)N[C@@H](CCCN=C(N)N)C(=O)N[C@H]1CSSC[C@H](C(N)=O)NC(=O)[C@H](CC(C)C)NC(=O)[C@H](CCCCN)NC(=O)[C@@H]2CCCN2C(=O)[C@H](CCCN=C(N)N)NC1=O [Tyr-Gly-Gly-Phe-Leu-Arg-Arg-c(Cys-Arg-Pro-Lys-Leu-Cys)]	1.9	
CC[C@H](C)[C@@H]1NC(=O)[C@H](CCCN=C(N)N)NC(=O)[C@H](CCCN=C(N)N)NC(=O)[C@@H](NC(=O)[C@H](Cc2ccccc2)NC(=O)CNC(=O)[C@@H](C)NC(=O)[C@@H](N)Cc2ccc(O)cc2)CSSC[C@@H](C(N)=O)NC(=O)[C@@H]2CCCN2C(=O)[C@H](CCCN=C(N)N)NC1=O [Tyr-(D-ala)-Gly-Phe-c(Cys-Arg-Arg-Ile-Arg-Pro-Cys)]	107	
CC[C@H](C)[C@H](NC(=O)[C@H](CCCN=C(N)N)NC(=O)[C@H](CCCN=C(N)N)NC(=O)[C@H](CC(C)C)NC(=O)[C@H](Cc1ccccc1)NC(=O)CNC(=O)CNC(=O)[C@@H](N)Cc1ccc(O)cc1)C(=O)N[C@@H](CCCN=C(N)N)C(=O)N1CCC[C@H]1C(=O)N[C@@H](CCCCN)C(=O)N[C@@H](CC(C)C)C(=O)N[C@@H](CCCCN)C(=O)O [Dynorphin A (1-13)]	4.1	
CC[C@H](C)[C@@H]1NC(=O)[C@H](CCCN=C(N)N)NC(=O)[C@H](CCCN=C(N)N)NC(=O)[C@@H](NC(=O)[C@H](Cc2ccccc2)NC(=O)CNC(=O)CNC(=O)[C@@H](N)Cc2ccc(O)cc2)CSSC[C@@H](C(=O)N[C@@H](CCCN=C(N)N)C(=O)N[C@@H](CCCCN)C(N)=O)NC1=O [Tyr-Gly-Gly-Phe-c(Cys-Arg-Arg-Ile-Cys)-Arg-lys] (H-YGGFCRRICRK-NH2; disulfide 5-9)		18
CC[C@H](C)[C@@H]1NC(=O)[C@H](CCCN=C(N)N)NC(=O)[C@H](CCCN=C(N)N)NC(=O)[C@@H](NC(=O)[C@@H]2Cc3ccccc3CN2C(=O)CNC(=O)CNC(=O)[C@@H](N)Cc2ccc(O)cc2)CSSC[C@@H](C(=O)O)NC(=O)[C@@H]2CCCN2C(=O)[C@H](CCCN=C(N)N)NC1=O [Tyr-Gly-Gly-(L-Tic)-c(Cys-Arg-Arg-Ile-Arg-Pro-Cys)]	181	
CC[C@H](C)[C@@H]1NC(=O)[C@H](CCCNC(=N)N)NC(=O)[C@@H](NC(=O)[C@H](CC(C)C)NC(=O)[C@H](Cc2ccccc2)NC(=O)CNC(=O)CNC(=O)[C@@H](N)Cc2ccc(O)cc2)CSSC[C@@H](C(=O)N[C@@H](CCCCN)C(N)=O)NC(=O)[C@H](CCCNC(=N)N)NC1=O [Tyr-Gly-Gly-Phe-leu-c(Cys-Arg-Ile-Arg-Cys)-lys] (H-YGGFLCRIRCK-NH2; disulfide 6-10)	0.475	
CC(C)C[C@H](NC(=O)[C@H](Cc1ccccc1)NC(=O)CNC(=O)CNC(=O)[C@@H](N)Cc1ccc(O)cc1)C(=O)N[C@@H](CCCNC(=N)N)C(=O)N[C@@H](CCCNC(=N)N)C(=O)N[C@@H]1CSSC[C@H](C(=O)N[C@@H](CCCCN)C(N)=O)NC(=O)[C@H](CCCCN)NC(=O)[C@@H]2CCCN2C(=O)[C@H](CCCNC(=N)N)NC1=O [Tyr-Gly-Gly-Phe-Leu-Arg-Arg-c((D-Cys)-Arg-Pro-Lys-(D-Cys))-Lys]	6.5	
CC[C@H](C)[C@@H]1NC(=O)[C@H](CCCNC(=N)N)NC(=O)[C@H](CCCNC(=N)N)NC(=O)[C@@H](NC(=O)[C@H](Cc2ccccc2)NC(=O)CNC(=O)CNC(=O)[C@@H](N)Cc2ccc(O)cc2)CSSC[C@@H](C(N)=O)NC(=O)[C@H](CC(C)C)NC(=O)[C@H](CCCCN)NC(=O)[C@H]2CCCN2C(=O)[C@H](CCCNC(=N)N)NC1=O [Tyr-Gly-Gly-Phe-c(Cys-Arg-Arg-Ile-Arg-(D-Pro)-Lys-Leu-Cys)]	9.6	
CC[C@H](C)[C@@H]1NC(=O)[C@H](CCCN=C(N)N)NC(=O)[C@H](CCCN=C(N)N)NC(=O)[C@@H](NC(=O)[C@H](Cc2ccccc2)NC(=O)CNC(=O)CNC(=O)[C@@H](N)Cc2ccc(O)cc2)C(C)(C)SSC[C@@H](C(N)=O)NC(=O)[C@@H]2CCCN2C(=O)[C@H](CCCN=C(N)N)NC1=O [Tyr-Gly-Gly-Phe-c((L-Pen)-Arg-Arg-Ile-Arg-Pro-Cys)] (H-YGGF[Pen]RRIRPC-NH2; disulfide 5-11)	86	
